The values that follow come from patent US20250179032A1, “HETEROCYCLIC INHIBITORS OF GLUT9 FOR TREATMENT OF DISEASE” (HORIZON THERAPEUTICS IRELAND DAC, priority 2022, published 2025).

For the test, the target named is T1, H. sapiens SLC2A9 variant 2 (GLUT9B) (Homo sapiens, UniProt Q9NRM0).
T1 sequence (Q9NRM0 1-511 isoform Q9NRM0-2): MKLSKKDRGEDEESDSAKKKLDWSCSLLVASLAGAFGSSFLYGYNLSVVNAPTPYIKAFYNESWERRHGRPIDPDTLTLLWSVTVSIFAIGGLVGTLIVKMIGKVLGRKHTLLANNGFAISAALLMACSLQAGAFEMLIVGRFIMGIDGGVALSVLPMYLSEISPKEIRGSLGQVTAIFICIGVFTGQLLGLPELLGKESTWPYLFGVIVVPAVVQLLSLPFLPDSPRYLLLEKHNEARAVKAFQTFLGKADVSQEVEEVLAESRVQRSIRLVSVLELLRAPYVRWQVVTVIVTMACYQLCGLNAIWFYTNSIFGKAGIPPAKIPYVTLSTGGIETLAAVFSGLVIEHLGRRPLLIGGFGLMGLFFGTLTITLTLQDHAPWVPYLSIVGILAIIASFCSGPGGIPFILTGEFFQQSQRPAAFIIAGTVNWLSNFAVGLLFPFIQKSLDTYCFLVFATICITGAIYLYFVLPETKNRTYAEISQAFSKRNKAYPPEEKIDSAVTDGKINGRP
Put plainly: GLUT9 functional assay: uric acid uptake in HEK293T cells, allantoin formation by MS/MS as proxy of GLUT9B inhibition. The test is classed as cell-based. The following applies: HEK293T cells stably expressing GLUT9B and transiently A. oryzae uricase, uric acid 0.3 mM, 37° C. On the procedure:
Uric acid stocks (9 mM, Millipore-Sigma, U0881) were generated in 125 mM choline chloride (Millipore-Sigma, C7017) and the concentration was determined at 293 nm using a molar extinction coefficient of 9600 M- ^1 cm- ^1) after collecting the absorbance spectra from 220-350 nm. Allantoin stocks (12 mM Toronto Research Chemicals, A540500) were generated in LCMS grade water (Thermo Scientific, 51140). The concentration of allantoin was determined by qNMR (Michigan State University). HEK293T cells were purchased from ATCC (HEK 293T/17 SF). Hanks buffered saline salts (HBSS) was purchased from Millipore-Sigma (H6648-1L).
SLC2A9 variant 2 was assayed in sodium gluconate buffer was composed of 125 mM sodium gluconate (TCI Chemicals, G0041-500G), 4.8 mM potassium gluconate (TCI Chemicals, G0040-500G), 1.2 mM calcium gluconate (TCI Chemicals, G0037-500G), 1.2 mM potassium phosphate (pH 7.4, Millipore-Sigma, 17835), 1.2 mM MgSO4, Millipore-Sigma, M2773-500G), 25 mM HEPES pH 7.3, (Millipore-Sigma, 54457). The final pH of the buffer was 7.4. Urate 1 was assayed in the same buffer save the pH was made to be 5.5 using 25 mM MES (pH 5.5) buffer vs 25 mM HEPES (pH 7.3) buffer.
Human untagged clone for (untagged)-human solute carrier family 2 member 9 (SLC2A9), transcript variant (SLC2A9/NM_001001290, FIG. 1 and FIG. 2; SEQ ID NOS: 3 and 4) was purchased from Origene (Cat #SC319239). SLC2A9 variant 2 (GLUT9B) gene was amplified by PCR using the following primer to allow for the introduction of EcoR1 and Not1 sites using the primers below.
HEK293T clonal stable cell lines containing the SLC2A9 variant 2 construct in the bicistronic pIRESpuro vector were generated using Viafect™ (Promega E4981) as per the manufactures instructions and puromycin selection (5 μg×mL^−1).
Uric acid uptake was measured in HEK293T cells stably expressing H. sapiens SLC2A9 variant 2 (GLUT9B) and transiently expressing A. oryzae uricase. Thus, decreased allantoin formation was used as a proxy of GLUT9B inhibition. Briefly, clonal cells were plated (53,000 cells/cm^2) in DMEM with 10% FBS. Twenty-four hours later, A. oryzae uricase was transfected, and assay conducted 3 days later across a 12-point curve in buffer (in mM: 125 sodium gluconate, 4.8 potassium gluconate, 1.2 calcium gluconate, 1.2 potassium phosphate, 1.2 magnesium sulfate4, 25 HEPES; pH 7.4) with uric acid at the GLUT9B Km (0.3 mM) for 15 min or for 60 min, at 37° C. Following wash (Hanks, 37° C.), plates were sealed, incubated (5 min, RT) and cells freeze-thawed prior to lysing in water and shaking (30 min RT). Lysates were filtered through PVDF and subjected to MSMS using a 10 mM ammonium acetate-based mobile phase on a porous graphitic carbon column. Allantoin was detected in positive ion mode. Desired analyte concentrations were quantitated by integrating the area under the curve followed by a log-logistic regression model and data compared to a standard curve prepared in a matching HEK293T biological matrix.
Mass spectrometry measurement of allantoin was completed using an Agilent RapidFire 300 coupled to a Sciex API 4000 mass spectrometer. The stationary phase was an Agilent cartridge D (hypercarb). Mobile phase A was 10 mM ammonium acetate. Mobile phase B was 5 mM ammonium acetate, 25% acetonitrile, 25% acetone. Allantoin was detected in positive ion mode with the following compound ID settings: Q1 159, Q3 115.8, DP 57, CE 12.5 Dwell 100 ms. The source settings were CAD 10, CUR 20, GS1 50, GS250 IS/NC: 5000, TEM 650, EP 10, CXP 10 where Q1 and Q3 resolution were set to low.
Data was quantitated using Area under the curve integration was performed with the RapidFire™ Integrator (Agilent Technologies) for the desired analytes. Quantitation was completed using in a using a log-logistic regression model using allantoin in matching HEK293T biological matrix.

[1] abbreviates: 15 minute assay, read-out: 15 min IC50.
Where [2] appears, read: 60 minute assay, read-out: 60 min IC50.

Like-named read-outs stand apart in the source and are kept apart here.

With `O=c1[nH]c(C2CCN(c3nc(COCC(F)(F)F)cnc3-c3cc(F)c4occc4c3)CC2)ns1` [Compound 81, 3-(1-(3-(7-fluorobenzofuran-5-yl)-6-((2,2,2-trifluoroethoxy)methyl)pyrazin-2-yl)piperidin-4-yl)-1,2,4-thiadiazol-5(4H)-one], the IC50 (commonly the concentration that inhibits the measured activity by half) under setting [1] lay within 0.5 to 2 µM.
The same measure, in the same setting: under `O=C(O)C1CCN(c2nc(CC(C(F)(F)F)C(F)(F)F)cnc2-c2ccc3c(c2)OCO3)CC1` [Compound 127, 1-(3-(benzo[d][1,3]dioxol-5-yl)-6-(3,3,3-trifluoro-2-(trifluoromethyl)propyl)pyrazin-2-yl)piperidine-4-carboxylic acid] stands 0.5 to 2 µM.
With `COCCCc1cnc(-c2ccc3c(c2)OCO3)c(N2CCC3(CC(C(=O)O)C3)C2)c1` (stereo not drawn) [Compound 247, 6-(2-(benzo[d][1,3]dioxol-5-yl)-5-(3-methoxypropyl)pyridin-3-yl)-6-azaspiro[3.4]octane-2-carboxylic acid], the IC50 under setting [2] was 0.5 to 2 µM.
Regarding `COCCCc1cnc(-c2ccc3c(c2)OCO3)c(N2CC(OC)(C(=O)O)C2)c1` [Compound 252, 1-(2-(benzo[d][1,3]dioxol-5-yl)-5-(3-methoxypropyl)pyridin-3-yl)-3-methoxyazetidine-3-carboxylic acid], the IC50 under setting [2] was greater than 2 µM.
The same measure, in the same setting: under `COCCCc1cnc(-c2cnc3ccccc3c2)c(N2CCC(C(=O)O)CC2)n1` [Compound 199, 1-(6-(3-methoxypropyl)-3-(quinolin-3-yl)pyrazin-2-yl)piperidine-4-carboxylic acid] stands greater than 2 µM.
For `COCCCc1cnc(-c2cc(F)c3sccc3c2)c(N2CCC(C(=O)O)CC2)n1` [Compound 225, 1-(3-(7-fluorobenzo[b]thiophen-5-yl)-6-(3-methoxypropyl)pyrazin-2-yl)piperidine-4-carboxylic acid], under setting [2], the IC50 was less than 0.5 µM.
As to `O=C(O)CC1CC2(C1)CN(c1nc(CCC(F)(F)F)cnc1-c1ccc3occc3c1)C2` [Compound 101, 2-(2-(3-(benzofuran-5-yl)-6-(3,3,3-trifluoropropyl)pyrazin-2-yl)-2-azaspiro[3.3]heptan-6-yl)acetic acid], the IC50 under setting [1] was greater than 2 µM.
Turning to `COCCCc1cnc(-c2ccc3c(c2)OCO3)c(N2CCC(O)(C(=O)O)CC2)n1` [Compound 171, 1-(3-(benzo[d][1,3]dioxol-5-yl)-6-(3-methoxypropyl)pyrazin-2-yl)-4-hydroxypiperidine-4-carboxylic acid], the IC50 under setting [1] is greater than 2 µM.
Turning to `COCCCc1cnc(-c2ccc3occc3c2)c(N2CCC[C@@H](C(=O)O)C2)n1` (single isomer, unassigned) [Compound 236], the IC50 under setting [2] was 0.5 to 2 µM.
For the compound `COCCOc1ccc(-c2ncc(CCC(F)(F)F)nc2N2CCC(C(=O)O)CC2)cn1` [Compound 97, 1-(3-(6-(2-methoxyethoxy)pyridin-3-yl)-6-(3,3,3-trifluoropropyl)pyrazin-2-yl)piperidine-4-carboxylic acid], the IC50 under setting [1] is greater than 2 µM.
Take `COCCCc1cnc(-c2ccc3c(c2)OCO3)c(N2CC3(CC(C(=O)O)CO3)C2)c1` (stereo not drawn) [Compound 249, 2-(2-(benzo[d][1,3]dioxol-5-yl)-5-(3-methoxypropyl)pyridin-3-yl)-5-oxa-2-azaspiro[3.4]octane-7-carboxylic acid]: the IC50 under setting [2] is greater than 2 µM.
`O=C(O)C1C[C@@H]2CN(c3nc(CCC(F)(F)F)cnc3-c3ccc4occc4c3)C[C@@H]2C1` (stereo partly drawn) [Compound 102, (3aR,6aS)-2-(3-(benzofuran-5-yl)-6-(3,3,3-trifluoropropyl)pyrazin-2-yl)octahydrocyclopenta[c]pyrrole-5-carboxylic acid]: under setting [1], the IC50 was 0.5 to 2 µM.
`COCc1cnc(-c2cc(F)c3c(ccn3C)c2)c(N2CCC(C(=O)O)CC2)n1` [Compound 51, 1-(3-(7-fluoro-1-methyl-1H-indol-5-yl)-6-(methoxymethyl)pyrazin-2-yl)piperidine-4-carboxylic acid]: under setting [1], the IC50 was greater than 2 µM.
On to `CCCCc1cnc(-c2ccc(OC)cc2)c(-c2coc(C(=O)O)c2)c1` [Compound 22, 4-(5-butyl-2-(4-methoxyphenyl)pyridin-3-yl)furan-2-carboxylic acid], for which, under setting [1], the 50% inhibitory concentration (IC50) is greater than 2 µM.
For the compound `CCCCc1cnc(-c2ccc(OC)cc2)c(N2CCC(F)(C(=O)O)CC2)n1` [Compound 10, 1-(6-Butyl-3-(4-Methoxyphenyl)Pyrazin-2-yl)-4-Fluoropiperidine-4-carboxylic acid], under setting [1], the IC50 is less than 0.5 µM.
As to `O=C(O)C1CCN(c2nc(COCC(F)(F)F)cnc2-c2ccc(OCC3CC3)c(F)c2)CC1` [Compound 78, 1-(3-(4-(cyclopropylmethoxy)-3-fluorophenyl)-6-((2,2,2-trifluoroethoxy)methyl)pyrazin-2-yl)piperidine-4-carboxylic acid], under setting [1], the IC50 was greater than 2 µM.
Turning to `COCCCc1cnc(-c2ccc3occ(Cl)c3c2)c(N2CCC(C(=O)O)CC2)n1` [Compound 253, 1-(3-(3-chlorobenzofuran-5-yl)-6-(3-methoxypropyl)pyrazin-2-yl)piperidine-4-carboxylic acid], the IC50 under setting [2] is less than 0.5 µM.
As to `O=C(O)C1CCN(c2nc(CCC(F)(F)F)cnc2-c2ccc3occc3c2)CC1` [Compound 121, 1-(3-(benzofuran-5-yl)-6-(3,3,3-trifluoropropyl)pyrazin-2-yl)piperidin-4-carboxylic acid], the IC50 under setting [1] is less than 0.5 µM.
As to `COCCCc1cnc(-c2cnc3occc3c2)c(N2CCC(C(=O)O)CC2)c1` [Compound 170, 1-(2-(Furo[2,3-b]Pyridin-5-yl)-5-(3-Methoxypropyl)Pyridin-3-yl)piperidine-4-carboxylic acid], the IC50 is 0.5 to 2 µM under setting [1] and greater than 2 µM under setting [2].
On to `COCCOc1ccc(-c2ncc(CCC(F)(F)F)nc2N2CCC(C(=O)O)CC2)cc1` [Compound 86, 1-(3-(4-(2-methoxyethoxy)phenyl)-6-(3,3,3-trifluoropropyl)pyrazin-2-yl)piperidine-4-carboxylic acid], for which, under setting [1], the IC50 is 0.5 to 2 µM.
With `COCCCc1cnc(-c2ccc3occc3c2)c(N2CC(C(=O)O)C2)n1` [Compound 175, 1-(3-(benzofuran-5-yl)-6-(3-methoxypropyl)pyrazin-2-yl)azetidine-3-carboxylic acid], the IC50 is, setting by setting: under setting [1], greater than 2 µM; under setting [2], greater than 2 µM.
For `COCc1nc(N2CCC(C(=O)O)CC2)c(-c2cc(F)c3c(ccn3C)c2)nc1Cl` [Compound 56, 1-(5-chloro-3-(7-fluoro-1-methyl-1H-indol-5-yl)-6-(methoxymethyl)pyrazin-2-yl)piperidine-4-carboxylic acid], under setting [1], the IC50 is greater than 2 µM.
